From ChEMBL document CHEMBL1152576, “E-Combretastatin and E-resveratrol structural modifications: antimicrobial and cancer cell growth inhibitory beta-E-nitrostyrenes” (Bioorg Med Chem, 2009)
In brackets after ≈: the same amount, converted by molar mass. Activity calls are given as the source filed them. The calls are words filed in the database; no cut-off is given here.

Columns and labels:
SK-MEL-5 = test: Cytotoxicity against human SK-MEL-5 cells after 48 hrs by sulforhodamine B assay; format: functional
Escherichia coli [1] = test: Antimicrobial activity against Escherichia coli ATCC 25922 assessed clear zone in inhibition per disk by CLSI disk diffusion susceptibility assay; format: functional
Candida albicans [2] = test: Antifungal activity against Candida albicans ATCC 90028 after 48 hrs by broth microdilution susceptibility assay; format: functional; settings: ATCC 90028, 48 h
Neisseria gonorrhoeae [3] = test: Antimicrobial activity against Neisseria gonorrhoeae ATCC 49226 after 24 hrs by broth microdilution susceptibility assay; format: functional; settings: ATCC 49226, 24 h
Streptococcus pneumoniae [4] = test: Antimicrobial activity against Streptococcus pneumoniae ATCC 6303 after 24 hrs by broth microdilution susceptibility assay; format: functional; settings: ATCC 6303, 24 h
Enterobacter cloacae [5] = test: Antimicrobial activity against Enterobacter cloacae ATCC 13047 assessed clear zone in inhibition per disk by CLSI disk diffusion susceptibility assay; format: functional
Micrococcus luteus [6] = test: Antimicrobial activity against Micrococcus luteus Presque Isle 456 assessed clear zone in inhibition per disk by CLSI disk diffusion susceptibility assay; format: functional
[7] = test system: Stenotrophomonas maltophilia; test: Antimicrobial activity against Stenotrophomonas maltophilia ATCC 13637 assessed clear zone in inhibition per disk by CLSI disk diffusion susceptibility assay; format: functional
Cryptococcus neoformans [8] = test: Antimicrobial activity against Cryptococcus neoformans ATCC 90112 assessed clear zone in inhibition per disk by CLSI disk diffusion susceptibility assay; format: functional
NCI-H460 = test: Cytotoxicity against human NCI-H460 cells after 48 hrs by sulforhodamine B assay; format: functional; settings: NCI-H460, 48 h
Candida albicans [9] = test: Antimicrobial activity against Candida albicans ATCC 90028 assessed clear zone in inhibition per disk by CLSI disk diffusion susceptibility assay; format: functional
Staphylococcus aureus [10] = test: Antimicrobial activity against Staphylococcus aureus ATCC 29213 assessed clear zone in inhibition per disk by CLSI disk diffusion susceptibility assay; format: functional
Cryptococcus neoformans [11] = test: Antifungal activity against Cryptococcus neoformans ATCC 90112 after 72 hrs by broth microdilution susceptibility assay; format: functional; settings: ATCC 90112, 72 h
Streptococcus pneumoniae [12] = test: Antimicrobial activity against Streptococcus pneumoniae ATCC 6303 by broth microdilution susceptibility assay; format: functional
Enterococcus faecalis [13] = test: Antimicrobial activity against Enterococcus faecalis ATCC 29212 assessed clear zone in inhibition per disk by CLSI disk diffusion susceptibility assay; format: functional
Micrococcus luteus [14] = test: Antimicrobial activity against Micrococcus luteus Presque Isle 456 by broth microdilution susceptibility assay; format: functional
KM-20L2 = test: Cytotoxicity against human KM20L2 cells after 48 hrs by sulforhodamine B assay; format: functional; settings: KM-20L2, 48 h
Streptococcus pneumoniae [15] = test: Antimicrobial activity against Streptococcus pneumoniae ATCC 6303 assessed clear zone in inhibition per disk by CLSI disk diffusion susceptibility assay; format: functional
Staphylococcus aureus [16] = test: Antimicrobial activity against Staphylococcus aureus ATCC 29213 after 24 hrs by broth microdilution susceptibility assay; format: functional; settings: ATCC 29213, 24 h
DU-145 = test: Cytotoxicity against human DU145 cells after 48 hrs by sulforhodamine B assay; format: functional; settings: DU-145, 48 h
Escherichia coli [17] = test: Antimicrobial activity against Escherichia coli ATCC 25922 by broth microdilution susceptibility assay; format: functional
Neisseria gonorrhoeae [18] = test: Antimicrobial activity against Neisseria gonorrhoeae ATCC 49226 assessed clear zone of inhibition measured per disk by CLSI disk diffusion susceptibility assay; format: functional
BXPC-3 = test: Cytotoxicity against human BxPC3 cells after 48 hrs by sulforhodamine B assay; format: functional; settings: BXPC-3, 48 h
Cryptococcus neoformans [19] = test: Antifungal activity against Cryptococcus neoformans ATCC 90112 after 48 hrs by broth microdilution susceptibility assay; format: functional; settings: ATCC 90112, 48 h
Enterococcus faecalis [20] = test: Antimicrobial activity against Enterococcus faecalis ATCC 29212 by broth microdilution susceptibility assay; format: functional
P388 = test: Cytotoxicity against mouse P388 cells after 48 hrs by sulforhodamine B assay; format: functional; settings: P388, 48 h, read-out: ED50 (the source's name)
SF-295 = test: Cytotoxicity against human SF295 cells after 48 hrs by sulforhodamine B assay; format: functional
Neisseria gonorrhoeae [21] = test: Antimicrobial activity against Neisseria gonorrhoeae ATCC 49226 by broth microdilution susceptibility assay; format: functional
Enterobacter cloacae [22] = test: Antimicrobial activity against Enterobacter cloacae ATCC 13047 by broth microdilution susceptibility assay; format: functional
SF-268 = test: Cytotoxicity against human SF268 cells after 48 hrs by sulforhodamine B assay; format: functional; settings: SF-268, 48 h
MCF7 = test: Cytotoxicity against human MCF7 cells after 48 hrs by sulforhodamine B assay; format: functional; settings: MCF7, 48 h
Staphylococcus aureus [23] = test: Antimicrobial activity against Staphylococcus aureus ATCC 29213 by broth microdilution susceptibility assay; format: functional
OVCAR-3 = test: Cytotoxicity against human OVCAR-3 cells after 48 hrs by sulforhodamine B assay; format: functional
[24] = test system: Stenotrophomonas maltophilia; test: Antimicrobial activity against Stenotrophomonas maltophilia ATCC 13637 by broth microdilution susceptibility assay; format: functional
A498 = test: Cytotoxicity against human A498 cells after 48 hrs by sulforhodamine B assay; format: functional
[25] = Inhibition of tubulin polymerization
Candida albicans [26] = test: Antifungal activity against Candida albicans ATCC 90028 after 24 hrs by broth microdilution susceptibility assay; format: functional; settings: ATCC 90028, 24 h

| SMILES | GI50 (SK-MEL-5) | MIC (Escherichia coli [1]) | MIC (Candida albicans [2]) | MBC (Neisseria gonorrhoeae [3]) | MBC (Streptococcus pneumoniae [4]) | MIC (Enterobacter cloacae [5]) | MIC (Micrococcus luteus [6]) | MIC [7] | MIC (Cryptococcus neoformans [8]) | GI50 (NCI-H460) | MIC (Candida albicans [9]) | MIC (Staphylococcus aureus [10]) | MIC (Cryptococcus neoformans [11]) | MIC (Streptococcus pneumoniae [12]) | MIC (Enterococcus faecalis [13]) | MIC (Micrococcus luteus [14]) | GI50 (KM-20L2) | MIC (Streptococcus pneumoniae [15]) | GI50 (DU-145) | MIC (Escherichia coli [17]) | also measured |
| --- | --- | --- | --- | --- | --- | --- | --- | --- | --- | --- | --- | --- | --- | --- | --- | --- | --- | --- | --- | --- | --- |
| COc1cc(/C=C/[N+](=O)[O-])ccc1OCc1ccccc1 | inactive | >100 µg | > 64 µg/mL | 2 µg/mL (≈ 7.01 µM) | 32 µg/mL (≈ 112 µM) | >100 µg | >100 µg | >100 µg | <0.78 µg | 1.3 µg/mL (≈ 4.56 µM) | >100 µg | 6.25 µg | 32 µg/mL (≈ 112 µM) | 16 µg/mL (≈ 56.1 µM) | >100 µg | 4 µg/mL (≈ 14 µM) | 1.5 µg/mL (≈ 5.26 µM) | 12.5 µg | 1.3 µg/mL (≈ 4.56 µM) | > 64 µg/mL | MBC (Staphylococcus aureus [16]): > 16 µg/mL; MIC (Neisseria gonorrhoeae [18]): <0.78 µg; GI50 (BXPC-3): 1.7 µg/mL (≈ 5.96 µM); MFC (Cryptococcus neoformans [19]): 64 µg/mL (≈ 224 µM); MIC (Enterococcus faecalis [20]): > 64 µg/mL; EC50 (P388): 16.6 µg/mL (≈ 58.2 µM); GI50 (SF-295): inactive; MIC (Neisseria gonorrhoeae [21]): 1 µg/mL (≈ 3.51 µM); MIC (Enterobacter cloacae [22]): > 64 µg/mL; GI50 (SF-268): 0.94 µg/mL (≈ 3.29 µM); GI50 (MCF7): 0.96 µg/mL (≈ 3.36 µM); MIC (Staphylococcus aureus [23]): 4 µg/mL (≈ 14 µM); GI50 (OVCAR-3): inactive; MIC [24]: > 64 µg/mL; GI50 (A498): inactive; IC50 [25]: 2.5 µM |
| COc1cc(/C=C/[N+](=O)[O-])cc(OC)c1 | inactive | >100 µg | 16 µg/mL (≈ 76.5 µM) | 2 µg/mL (≈ 9.56 µM) | > 64 µg/mL | >100 µg | 25 µg | >100 µg | 0.78 µg | 2 µg/mL (≈ 9.56 µM) | 3.12 µg | 6.25 µg | 16 µg/mL (≈ 76.5 µM) | 64 µg/mL (≈ 306 µM) | 12.5 µg | > 64 µg/mL | 1.5 µg/mL (≈ 7.17 µM) | >100 µg | 1.5 µg/mL (≈ 7.17 µM) | > 64 µg/mL | MIC (Neisseria gonorrhoeae [18]): 0.78 µg; GI50 (BXPC-3): 1.6 µg/mL (≈ 7.65 µM); MFC (Cryptococcus neoformans [19]): 16 µg/mL (≈ 76.5 µM); MIC (Enterococcus faecalis [20]): > 64 µg/mL; EC50 (P388): 0.24 µg/mL (≈ 1.15 µM); GI50 (SF-295): inactive; MIC (Neisseria gonorrhoeae [21]): 2 µg/mL (≈ 9.56 µM); MIC (Enterobacter cloacae [22]): > 64 µg/mL; GI50 (SF-268): 2.3 µg/mL (≈ 11 µM); MFC (Candida albicans [26]): 16 µg/mL (≈ 76.5 µM); GI50 (MCF7): 1.8 µg/mL (≈ 8.6 µM); MIC (Staphylococcus aureus [23]): > 64 µg/mL; GI50 (OVCAR-3): inactive; MIC [24]: > 64 µg/mL; GI50 (A498): inactive; IC50 [25]: 3.9 µM |
